The numbers were not newly measured in patent US20060286181A1, “Diet supplements for causing fast weight loss, improving daytime energy, promoting nighttime relaxation and sleep, controlling appetite and/or increasing metabolism” (priority 2005, published 2006), which cites them from elsewhere.

For series [1] the following is noted: in vivo.
Series [2] deals with benzodiazepine binding site in the gamma-aminobutyric acid receptor type A (GABA(A)).
The conditions of series [3]: at least three clinical trials.
Series [4] relates to fatty acid synthesis. The note with it: rats.
The target of series [5] is T1, ATP:citrate lyase (Homo sapiens, UniProt P53396).
T1 sequence (P53396 1-1101): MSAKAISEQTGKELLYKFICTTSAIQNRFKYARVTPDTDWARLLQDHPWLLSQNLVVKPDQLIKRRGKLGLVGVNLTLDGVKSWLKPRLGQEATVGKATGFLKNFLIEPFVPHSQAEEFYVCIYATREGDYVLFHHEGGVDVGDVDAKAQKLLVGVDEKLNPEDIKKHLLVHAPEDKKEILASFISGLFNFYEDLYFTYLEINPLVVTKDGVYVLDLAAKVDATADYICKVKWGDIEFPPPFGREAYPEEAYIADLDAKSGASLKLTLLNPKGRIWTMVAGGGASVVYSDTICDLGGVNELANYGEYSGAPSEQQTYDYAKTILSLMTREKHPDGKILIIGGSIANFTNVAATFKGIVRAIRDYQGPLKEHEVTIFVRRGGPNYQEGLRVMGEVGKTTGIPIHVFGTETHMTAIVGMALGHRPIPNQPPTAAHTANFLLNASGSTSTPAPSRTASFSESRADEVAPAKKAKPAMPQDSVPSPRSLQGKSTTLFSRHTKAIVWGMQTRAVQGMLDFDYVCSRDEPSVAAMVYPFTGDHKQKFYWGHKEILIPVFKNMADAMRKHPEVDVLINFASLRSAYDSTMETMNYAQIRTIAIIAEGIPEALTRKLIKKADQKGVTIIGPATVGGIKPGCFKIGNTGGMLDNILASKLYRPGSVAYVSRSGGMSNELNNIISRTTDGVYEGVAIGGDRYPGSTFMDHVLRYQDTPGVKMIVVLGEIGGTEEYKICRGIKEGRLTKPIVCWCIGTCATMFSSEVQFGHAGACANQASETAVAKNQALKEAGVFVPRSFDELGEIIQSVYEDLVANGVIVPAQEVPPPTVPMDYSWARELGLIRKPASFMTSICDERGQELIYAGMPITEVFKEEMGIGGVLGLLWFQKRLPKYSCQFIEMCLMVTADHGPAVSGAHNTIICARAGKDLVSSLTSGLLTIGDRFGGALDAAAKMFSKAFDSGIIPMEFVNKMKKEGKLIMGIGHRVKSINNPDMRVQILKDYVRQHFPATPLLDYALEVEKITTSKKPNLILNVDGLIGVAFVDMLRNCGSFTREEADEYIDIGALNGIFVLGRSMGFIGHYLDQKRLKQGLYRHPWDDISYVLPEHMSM

Series [6] concerns appetite. The note with it: rats.
The subject of series [7] is diet-induced weight gain. The note with it: mice.
For series [8] the following is noted: meta-analysis of forty double-blind studies.
Test in series [9]: not given
This is another data set of the same source.

For series [10], the system named is adenosine receptors.
Test in series [11]: not given
This is another data set of the same source.

The conditions of series [12]: daily supplementation with moderate exercise, 8 weeks.
Series [13] has as its system Metabolic Syndrome.
For series [14] the following is noted: 8 weeks, overweight subjects.
Test in series [15]: not given
This is another data set of the same source.

Where two headings read alike, the source gives them in different places.

As to `O=c1cc(-c2ccc(O)cc2)oc2cc(O)cc(O)c12` [Apigenin], in [1], the “memory and motor skills” value is “without impairing memory or motor skills”; the “sedation and locomotor activity” value was “sedation and a reduction in locomotor activity”. Also, the “binding to benzodiazepine binding site of GABA(A)” value in series [2] is reported as “can bind”.
On to `N[C@@H](Cc1c[nH]c2ccc(O)cc12)C(=O)O` [Example 5-HTP, 5-hydroxy-L-tryptophan], for which the “weight loss, safety and efficacy” value in series [3] was “safely and effectively to aid in weight loss”.
Regarding `O=C(O)CC(O)(C(=O)O)C(O)C(=O)O` (centres unmarked) [HCA, Hydroxycitric acid], the fatty acid synthesis entry in [4] is reported as “inhibit fatty acid synthesis”. Also, the caloric intake result (clinical studies) is listed as “reduction caloric intake”. Also, where the note is “human clinical trials”, the safety result is recorded as “demonstrated safety”. Moreover, where the note is “human, in vivo”, the levels of serotonin entry is “significantly increased”. The “fat oxidation during exercise” value (untrained men and women) is given as “increasing fat oxidation”. Further, in series [5], the “inhibition of ATP:citrate lyase” value is listed as “competitive inhibitor”. Besides, in series [6], the appetite result is “repress appetite”.
For `COc1ccc2[nH]cc(CCNC(C)=O)c2c1` [Melatonin], the diet-induced weight gain entry in series [7] is “reduce diet-induced weight gain”.
Regarding `Cn1c(=O)c2c(ncn2C)n(C)c1=O` [caffeine, Caffeine], the physical endurance entry in [8] is listed as “increase physical endurance”. For the same molecule, the basal metabolic rate result in series [9] (in vivo) was “increase the basal metabolic rate”. The weight loss result in series [9] (obese women) is recorded as “Significant weight loss”. In addition, the “binding to and activation of adenosine receptors” value in series [10] is “binds to, but does not activate”.
Consider `[Cr]` [chromium, Chromium], for which the lean mass result in series [11] (clinical) is given as “increase lean mass”. For the same molecule, the body fat entry in series [11] (combined with exercise) was “reduce body fat”. For the same molecule, the HDL cholesterol entry in [11] (in vivo) is “increase HDL”. Also, the blood cholesterol profile result in [12] is on record as “improved blood cholesterol profile”. Also, the weight loss result in series [12] (vs placebo group) was “increased weight loss”.
On to Chromium Polynicotinate, for which the systolic blood pressure result in series [13] (compared to control groups) is reported as “effective in lowering systolic blood pressure”. Moreover, the “free radical damage in liver and kidney tissue” value in series [13] (compared to controls) was “less free radical damage”. Moreover, the muscle loss entry in series [14] is listed as “sparing muscle from loss”. In series [14] (vs placebo group), the body fat result was “significant loss of body fat”.
In the case of Phosphatidylserine, in series [15] (clinical trials), the cortisol levels entry is given as “lower cortisol levels” and the stress entry is listed as “reduce stress”. Also, in [15] (human, in vivo), the exercise capacity result is on record as “increase exercise capacity” and the mood entry is on record as “positively affect mood”.
